Patent US6500669B1, “Programmable genotoxic agents and uses therefor” (Massachusetts Institute of Technology, priority 1994, dated 2002)
Where two headings read alike, the source gives them in different places.

Assays:
[1] = target: T1, estrogen receptor (ER) (Bos taurus, UniProt P49884); format: binding, calf
T1 construct: uterine cytosol was prepared by homogenizing calf uteri; from tissue; host or cells: calf uterus, cytosol (105,000 g supernatant)
T1 sequence (P49884 1-596): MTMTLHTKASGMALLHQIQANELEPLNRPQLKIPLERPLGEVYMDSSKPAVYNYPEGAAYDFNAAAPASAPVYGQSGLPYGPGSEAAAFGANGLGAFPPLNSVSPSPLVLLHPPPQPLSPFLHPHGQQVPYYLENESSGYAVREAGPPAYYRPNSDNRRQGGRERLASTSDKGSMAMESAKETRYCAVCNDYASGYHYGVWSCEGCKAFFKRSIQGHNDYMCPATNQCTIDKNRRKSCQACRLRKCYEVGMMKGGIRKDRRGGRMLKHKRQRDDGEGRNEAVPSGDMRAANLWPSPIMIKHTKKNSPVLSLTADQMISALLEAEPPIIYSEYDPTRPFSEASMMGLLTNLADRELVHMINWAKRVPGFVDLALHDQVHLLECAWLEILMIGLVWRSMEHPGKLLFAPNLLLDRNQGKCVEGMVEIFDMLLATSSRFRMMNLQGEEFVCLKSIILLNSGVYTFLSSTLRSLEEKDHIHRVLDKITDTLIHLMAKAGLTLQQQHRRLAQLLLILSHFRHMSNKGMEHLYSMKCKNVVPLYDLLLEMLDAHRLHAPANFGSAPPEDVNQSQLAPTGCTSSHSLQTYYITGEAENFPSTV

[2] = test system: MCF-7 and MDA-MB-231 cells; test: Methylene blue dye binding growth assay in breast tumor cell lines; format: cell-based, human; conditions: ED50 = concentration that inhibits cell growth by 50%
Method: The toxicities of the preferred 2-phenylindole-C6NC2-mustard and homologous ligand decoy compounds for selected cells distinguished phenotypically from nonselected cells by expression of ER were tested using the human breast tumor cell lines, MCF-7 and MDA-MB-231, according to the guidelines set forth in Example 10 (above). The MCF-7 cell line expresses the estrogen receptor protein, while no ER protein can be detected in the MDA-MB-231 cell line.
Both cell lines were routinely cultured in Minimal Essential Medium (MEM) supplemented with 2 mM gluatamine, 1 mM sodium pyruvate and 10% fetal calf serum. To determine the toxicity of test compounds, cells were trypsinized and plated in 100 μl of media in 96-well microtiter plates at the following densities: MCF-7, 2000 cells/well; MDA-MB-231, 1000 cells/well. Cells were allowed to grow for 24 hours in the 96-well plates prior to treatment with the compounds. […]
Each treatment condition was conducted in replicates of 8 wells. […] On day 4, cell growth in treated and control cultures was determined using the methylene blue dye binding assay.
A dye-binding assay as described by Finlay et al. (1984), 139 Anal. Biochem. 272 was used to assess the cytotoxic effects of 2-phenylindole-C6NC2-mustard and homologous ligand decoy compounds. […] The absorbance of the solubilized dye was read at 620 nm in a Ceres 9000 plate reader (Biotek).

[3] = test system: HeLa 36 (ER+) and HeLa 7 (ER-) cells; test: Methylene blue dye binding toxicity assay in HeLa ER transformants
[4] = target: T1, estrogen receptor (ER); test: In vitro [3H]E2 competition assay, calf uterine extracts, free compounds; format: binding; conditions: free compound
Method: Assays were performed by premixing a range of concentrations of the test compound with a fixed amount of tritium labeled estradiol ([^3H]E2). Calf uterine cytosol was then added. After incubation overnight at 4° C., activated charcoal/dextran was added to remove unbound [^3H]E2. Following centrifugation to remove the charcoal/dextran, levels of bound (i.e., non-competed) [^3H]E2 were determined by liquid scintillation spectrometry. Low concentrations of test compound required to abolish [^3H]E2 binding in this assay indicate a tight association between the test compound and the ER.

[5] = target: T2, hUBF (Homo sapiens, UniProt P17480); test: Southwestern blotting of hUBF with platinated DNA probes; format: binding; conditions: southwestern and western blot; DNA globally modified by the platinum compound
T2 construct: made in house; host or cells: in vitro transcription and translation (cell-free) from plasmid pTbGUBF1
T2 sequence (P17480 1-764): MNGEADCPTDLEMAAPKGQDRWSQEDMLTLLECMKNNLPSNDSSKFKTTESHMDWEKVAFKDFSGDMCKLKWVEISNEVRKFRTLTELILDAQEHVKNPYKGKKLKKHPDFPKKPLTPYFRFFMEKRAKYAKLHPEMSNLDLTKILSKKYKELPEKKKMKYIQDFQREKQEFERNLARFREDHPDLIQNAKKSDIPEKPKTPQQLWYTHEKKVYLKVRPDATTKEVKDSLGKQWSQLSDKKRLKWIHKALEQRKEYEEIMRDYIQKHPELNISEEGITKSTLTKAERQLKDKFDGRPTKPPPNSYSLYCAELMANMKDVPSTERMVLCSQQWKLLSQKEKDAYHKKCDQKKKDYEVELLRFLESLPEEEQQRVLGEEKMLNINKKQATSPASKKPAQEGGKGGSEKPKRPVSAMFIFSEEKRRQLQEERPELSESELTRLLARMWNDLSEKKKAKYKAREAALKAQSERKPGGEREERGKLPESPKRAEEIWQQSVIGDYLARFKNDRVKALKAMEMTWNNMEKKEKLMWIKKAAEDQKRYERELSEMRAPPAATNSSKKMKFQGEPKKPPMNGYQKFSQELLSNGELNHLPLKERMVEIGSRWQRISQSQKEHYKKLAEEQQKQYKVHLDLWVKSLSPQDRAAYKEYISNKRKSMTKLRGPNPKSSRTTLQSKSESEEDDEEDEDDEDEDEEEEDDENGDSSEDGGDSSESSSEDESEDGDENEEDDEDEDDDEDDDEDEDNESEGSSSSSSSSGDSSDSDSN
Method: Probe Preparation. The DNA probe used for southwestern blotting was a 422 base pair (bp) AvaI restriction fragment excised from M13mp19 replicative form DNA. Platinated probes were prepared by treating the AvaI-digested DNA with cisplatin or trans-DDP, and the formal bound drug/nucleotide ratios (rb) were determined by using atomic absorption spectroscopy as described in Donahue et al. (1990), 29 Biochemistry 5872-5880.
Western and Southwestern Blotting Technique. HeLa whole cell extracts (WCE) were prepared by the sonication procedure of Samson et al. (1986), 83 Proc. Natl. Acad. Sci. U.S.A. 5607-5610. The 97 kDa hUBF species was synthesized by in vitro transcription and translation from the plasmid pTbGUBF1 as reported in Jantzen et al. (1992), 6 Genes & Dev. 1950-1963. In vitro translated hUBF was quantitated by the incorporation of ^35S-methionine. Protein samples ([…] WCE or 8 ng hUBF) were resolved on 5-15% gradient SDS polyacrylamide gels and transferred to nitrocellulose membranes. Parallel blots of HeLa whole cell extracts (WCE) and in vitro translated hUBF (hUBF) were probed with various ^32P labeled DNA fragments (southwestern analysis, panels A-C of FIG. 2) or antiserum against hUBF (Anti-NOR-90) (panel D of FIG. 2). For southwestern analysis, the air dried membranes were processed as reported in Toney et al. (1989), 86 Proc. Natl. Acad. Sci. U.S.A. 8328-8332. […]

## O=C(O)CCCc1ccc(N(CCCl)CCCl)cc1 [chlorambucil, reference compound]
[1]; isolated DNA lesioned with compound, competition with E2
  affinity of DNA lesions formed by the compound for ER: no affinity

## O=C(NCCCc1ccc(N(CCCl)CCCl)cc1)OCCNCCCCCCn1c(-c2ccc(O)cc2)cc2cc(O)ccc21 [2-phenylindole-C6NC2-mustard]
[2]
  ED50 in MCF-7 relative to ED50 in MDA-MB-231: two- to three-fold lower
[3]; 4 hr. exposure, 2.5 μM dose
  differential in toxicity between HeLa 36 and HeLa 7: approximately a two-fold differential
[3]; 4 hr. exposure, 5 μM dose
  cytotoxicity in HeLa 36 cells relative to HeLa 7 cells: four- to five-fold greater cytotoxicity
[3]; 4 day exposure
  effect in HeLa 36 cells relative to HeLa 7 cells: selectively toxic and growth inhibitory effect
[1]
  affinity of DNA lesions formed by the compound for ER: compete effectively
[4]; calf uterine cytosol
  affinity for the ER relative to estradiol (E2): ≤ 20 fold
[4]; competition with [3H]E2
  affinity for the ER (in words): highest affinity

## N.N.[Cl][Pt][Cl] [cisplatin, cis-diamminedichloro-platinum(II)]
[5]
  binding of in vitro translated hUBF to drug-modified DNA: bound

## N.N.[Cl][Pt][Cl] [trans-DDP, trans-Diamminedichloroplatinum (II)]
[5]
  binding of in vitro translated hUBF to drug-modified DNA: failed to recognize
